{"source": "patent US20140243292A1", "about": "“SUBSITUTED 2-(CHROMAN-6-YLOXYL)-THIAZOLES AND THEIR USE AS PHARMACEUTICALS” (Sanofi, priority 2011, published 2014)", "note": "Where a name gives a salt, the structure may show the parent alone.", "data": [{"target": "T1, human NCX1 (Homo sapiens, UniProt P32418)", "T1 construct": "expressed in transfected cells", "assay": "NCX1 inhibition, reverse mode (Ca2+ influx into cells), FLIPR Fluo-4 assay", "format": "cell-based", "conditions": "NCX1 reverse mode; at 30 μM; read-out: Inhibition in % at 30 μM (NCX1rv; IC50 value not determined)", "outline": "(§1)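 CHO cells stably expressing human NCX1 were loaded with 2 µM Fluo-4 AM for 80 min at room temperature, then preincubated with compound for 45 min at 16 °C in pH 7.4 HEPES buffer (3.5 mM CaCl2, 2.5 mM probenecid). Reverse-mode Ca2+ influx was triggered by 20 µM final gramicidin and read at 520 nm on FLIPR. IC50 came from % inhibition of max−min fluorescence.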", "units": {"inhibition at 30 µM": "%"}, "values": [{"smiles": "O=C(O)CNC(=O)c1cnc(Oc2ccc3c(c2)CCC(c2cccnc2)O3)s1", "note": "(stereo not shown) [compound 260]", "inhibition at 30 µM": 38}, {"smiles": "CC(C)c1ccc(NC(=O)c2cnc(Oc3ccc4c(c3)CC[C@@H](c3ccccc3)O4)s2)cc1", "note": "[compound 280]", "inhibition at 30 µM": 38}]}, {"target": "T1, human NCX1", "assay": "NCX1 inhibition, reverse mode (Ca2+ influx into cells), FLIPR Fluo-4 assay", "format": "cell-based", "conditions": "inhibition of NCX1 in reverse mode (Ca2+ influx into cells); read-out: NCX1rv IC50", "outline": "as §1", "units": {"IC50": "nM"}, "values": [{"smiles": "COC(=O)C(C)(CC(C)C)NC(=O)c1cnc(Oc2ccc3c(c2)CC[C@@H](c2ccccc2)O3)s1", "note": "(stereo partly shown) [compound 231]", "IC50": 1500}, {"smiles": "Cc1ccc(C2CCc3cc(Oc4ncc(C(=O)NCc5ccno5)s4)ccc3O2)cn1", "note": "(stereo not shown) [compound 232]", "IC50": 1500}, {"smiles": "CC(Cc1ccccc1)(NC(=O)c1cnc(Oc2ccc3c(c2)CC[C@@H](c2ccccc2)O3)s1)C(=O)O", "note": "(stereo partly shown) [compound 233]", "IC50": 800}, {"smiles": "CC1(C)C[C@@H](C(=O)O)N(C(=O)c2cnc(Oc3ccc4c(c3)CC[C@@H](c3ccccc3)O4)s2)C1", "note": "[compound 234]", "IC50": 1000}, {"smiles": "CC1CN(C(=O)c2cnc(Oc3ccc4c(c3)CC[C@@H](c3ccccc3)O4)s2)CC1C(=O)O", "note": "(stereo partly shown) [compound 235]", "IC50": 500}, {"smiles": "CC(C)C[C@H](NC(=O)c1cnc(Oc2ccc3c(c2)CC[C@@H](c2ccccc2)O3)s1)[C@@H](O)C(=O)O", "note": "[compound 236]", "IC50": 1600}, {"smiles": "CC(C)C[C@@H](NC(=O)c1cnc(Oc2ccc3c(c2)CC[C@@H](c2ccccc2)O3)s1)C(=O)O", "note": "[compound 237]", "IC50": 800}, {"smiles": "CC(C)CC(CNC(=O)c1cnc(Oc2ccc3c(c2)CC[C@@H](c2ccccc2)O3)s1)C(=O)O", "note": "(stereo partly shown) [compound 238]", "IC50": 300}, {"smiles": "CC1(C(=O)O)CCN(C(=O)c2cnc(Oc3ccc4c(c3)CC[C@@H](c3ccccc3)O4)s2)C1", "note": "(stereo partly shown) [compound 239]", "IC50": 2400}, {"smiles": "O=C(O)C[C@H](O)[C@H](CC1CCCCC1)NC(=O)c1cnc(Oc2ccc3c(c2)CC[C@@H](c2ccccc2)O3)s1", "note": "[compound 240]", "IC50": 1100}, {"smiles": "CC(C)C[C@H](NC(=O)c1cnc(Oc2ccc3c(c2)CC[C@@H](c2ccccc2)O3)s1)C(=O)O", "note": "[compound 241]", "IC50": 600}, {"smiles": "CC(C)CC(C)(NC(=O)c1cnc(Oc2ccc3c(c2)CC[C@@H](c2ccccc2)O3)s1)C(=O)O", "note": "(stereo partly shown) [compound 242]", "IC50": 700}, {"smiles": "O=C(N[C@@H](Cc1ccccc1)C(=O)O)c1cnc(Oc2ccc3c(c2)CC[C@@H](c2ccccc2)O3)s1", "note": "[compound 244]", "IC50": 600}, {"smiles": "COC(=O)CNCc1cnc(Oc2ccc3c(c2)CC[C@@H](c2ccccc2)O3)s1", "note": "[compound 245]", "IC50": 100}, {"smiles": "O=C(O)CNCc1cnc(Oc2ccc3c(c2)CC[C@@H](c2ccccc2)O3)s1", "note": "[compound 246]", "IC50": 600}, {"smiles": "O=C(NCc1ccnc(Cl)c1)c1cnc(Oc2ccc3c(c2)CCC(c2cncc(F)c2)O3)s1", "note": "(stereo not shown) [compound 247]", "IC50": 700}, {"smiles": "O=C(NCc1ccno1)c1cnc(Oc2ccc3c(c2)CCC(c2cncc(F)c2)O3)s1", "note": "(stereo not shown) [compound 248]", "IC50": 800}, {"smiles": "O=C(NCCO)c1cnc(Oc2ccc3c(c2)CCC(c2cccnc2)O3)s1", "note": "(stereo not shown) [compound 249]", "IC50": 1400}, {"smiles": "COC(=O)CNC(=O)c1cnc(Oc2ccc3c(c2)CCC(c2cccnc2)O3)s1", "note": "(stereo not shown) [compound 250]", "IC50": 1200}, {"smiles": "O=C(N[C@H](CO)c1ccccc1)c1cnc(Oc2ccc3c(c2)CCC(c2cccnc2)O3)s1", "note": "(stereo partly shown) [compound 251]", "IC50": 1100}, {"smiles": "O=C(NC(CCO)C1CC1)c1cnc(Oc2ccc3c(c2)CCC(c2cccnc2)O3)s1", "note": "(stereo not shown) [compound 252]", "IC50": 3200}, {"smiles": "O=C(NCCO)c1cnc(Oc2ccc3c(c2)CCC(c2cncc(F)c2)O3)s1", "note": "(stereo not shown) [compound 253]", "IC50": 600}, {"smiles": "CO[C@H]1CNC[C@@H]1NC(=O)c1cnc(Oc2ccc3c(c2)CC[C@@H](c2ccccc2)O3)s1", "note": "[compound 254]", "IC50": 400}, {"smiles": "N[C@H]1C[C@@H]1NC(=O)c1cnc(Oc2ccc3c(c2)CC[C@@H](c2ccccc2)O3)s1", "note": "[compound 256]", "IC50": 300}, {"smiles": "NC1CC(NC(=O)c2cnc(Oc3ccc4c(c3)CC[C@@H](c3ccccc3)O4)s2)C1", "note": "(stereo partly shown) [compound 257]", "IC50": 400}, {"smiles": "OCCN(CCO)Cc1cnc(Oc2ccc3c(c2)CC[C@@H](c2ccccc2)O3)s1", "note": "[compound 258]", "IC50": 200}, {"smiles": "O=C(c1cnc(Oc2ccc3c(c2)CCC(c2cccnc2)O3)s1)N1CCC[C@H]1CO", "note": "(stereo partly shown) [compound 259]", "IC50": 1800}, {"smiles": "CC[C@H](C)[C@H](NC(=O)c1cnc(Oc2ccc3c(c2)CCC(c2cccnc2)O3)s1)C(=O)OC", "note": "(stereo partly shown) [compound 261]", "IC50": 3100}, {"smiles": "CCOC(=O)[C@H](Cc1ccccc1)NC(=O)c1cnc(Oc2ccc3c(c2)CCC(c2cccnc2)O3)s1", "note": "(stereo partly shown) [compound 262]", "IC50": 800}, {"smiles": "CCOC(=O)[C@@H](NC(=O)c1cnc(Oc2ccc3c(c2)CCC(c2cccnc2)O3)s1)C(C)C", "note": "(stereo partly shown) [compound 263]", "IC50": 25200}, {"smiles": "COC(=O)[C@@H](NC(=O)c1cnc(Oc2ccc3c(c2)CCC(c2cccnc2)O3)s1)C(C)(C)C", "note": "(stereo partly shown) [compound 264]", "IC50": 3100}, {"smiles": "NC1CC(NC(=O)c2cnc(Oc3ccc4c(c3)CCC(c3cccnc3)O4)s2)C1", "note": "(stereo not shown) [compound 265, hydrochloride]", "IC50": 7300}, {"smiles": "OCCNCc1cnc(Oc2ccc3c(c2)CC[C@@H](c2ccccc2)O3)s1", "note": "[compound 266]", "IC50": 100}, {"smiles": "N[C@H]1C[C@@H]1NC(=O)c1cnc(Oc2ccc3c(c2)CCC(c2cccnc2)O3)s1", "note": "(stereo partly shown) [compound 267, hydrochloride]", "IC50": 600}, {"smiles": "O=C(NC1C2CNCC21)c1cnc(Oc2ccc3c(c2)CCC(c2cccnc2)O3)s1", "note": "(stereo not shown) [compound 268]", "IC50": 2500}, {"smiles": "CO[C@H]1CNC[C@@H]1NC(=O)c1cnc(Oc2ccc3c(c2)CCC(c2cccnc2)O3)s1", "note": "(stereo partly shown) [compound 269, hydrochloride]", "IC50": 2600}, {"smiles": "CC[C@H](C)[C@H](NC(=O)c1cnc(Oc2ccc3c(c2)CCC(c2cccnc2)O3)s1)C(=O)O", "note": "(stereo partly shown) [compound 270]", "IC50": 12500}, {"smiles": "O=C(N[C@@H](Cc1ccccc1)C(=O)O)c1cnc(Oc2ccc3c(c2)CCC(c2cccnc2)O3)s1", "note": "(stereo partly shown) [compound 271]", "IC50": 12100}, {"smiles": "CC(C)[C@H](NC(=O)c1cnc(Oc2ccc3c(c2)CCC(c2cccnc2)O3)s1)C(=O)O", "note": "(stereo partly shown) [compound 272]", "IC50": 15600}, {"smiles": "CC(C)(C)[C@H](NC(=O)c1cnc(Oc2ccc3c(c2)CCC(c2cccnc2)O3)s1)C(=O)O", "note": "(stereo partly shown) [compound 273]", "IC50": 10100}, {"smiles": "Cc1cc(CNC(=O)c2cnc(Oc3ccc4c(c3)CC[C@@H](c3ccccc3)O4)s2)ccn1", "note": "[compound 274, hydrochloride]", "IC50": 400}, {"smiles": "CCOC(=O)[C@H](C)NC(=O)c1cnc(Oc2ccc3c(c2)CCC(c2cccnc2)O3)s1", "note": "(stereo partly shown) [compound 276]", "IC50": 400}, {"smiles": "O=C(NCc1ccno1)c1cnc(Oc2ccc3c(c2)CCC(c2ccc(Cl)nc2)O3)s1", "note": "(stereo not shown) [compound 277, hydrochloride]", "IC50": 2000}, {"smiles": "O=C(NCc1ccnc(Cl)c1)c1cnc(Oc2ccc3c(c2)CCC(c2ccc(Cl)nc2)O3)s1", "note": "(stereo not shown) [compound 278, hydrochloride]", "IC50": 1300}, {"smiles": "CCCNC(=O)c1cnc(Oc2ccc3c(c2)CC[C@@H](c2ccccc2)O3)s1", "note": "[compound 281]", "IC50": 600}, {"smiles": "CC1(C)CN(C(=O)c2cnc(Oc3ccc4c(c3)CC[C@@H](c3ccccc3)O4)s2)CCN1", "note": "[compound 282]", "IC50": 1200}, {"smiles": "O=C(c1cnc(Oc2ccc3c(c2)CC[C@@H](c2ccccc2)O3)s1)N1CC[C@H]2CNC[C@H]21", "note": "[compound 283, hydrochloride]", "IC50": 600}, {"smiles": "NC1C[C@@H]1NC(=O)c1cnc(Oc2ccc3c(c2)CC[C@@H](c2ccccc2)O3)s1", "note": "(stereo partly shown) [compound 284, hydrochloride]", "IC50": 200}, {"smiles": "CN[C@H]1CN(C(=O)c2cnc(Oc3ccc4c(c3)CC[C@@H](c3ccccc3)O4)s2)CC[C@H]1C", "note": "[compound 285, hydrochloride]", "IC50": 900}, {"smiles": "CN(C)CC1CN(C(=O)c2cnc(Oc3ccc4c(c3)CC[C@@H](c3ccccc3)O4)s2)CCO1", "note": "(stereo partly shown) [compound 286]", "IC50": 1500}, {"smiles": "O=C(NCC1CCCCN1)c1cnc(Oc2ccc3c(c2)CC[C@@H](c2ccccc2)O3)s1", "note": "(stereo partly shown) [compound 287]", "IC50": 500}, {"smiles": "O=C(c1cnc(Oc2ccc3c(c2)CC[C@@H](c2ccccc2)O3)s1)N1CCCCC1", "note": "[compound 288]", "IC50": 400}, {"smiles": "O=C(c1cnc(Oc2ccc3c(c2)CC[C@@H](c2ccccc2)O3)s1)N1CCC2(CCCNC2)C1", "note": "(stereo partly shown) [compound 290]", "IC50": 600}, {"smiles": "NCC1CCCN1C(=O)c1cnc(Oc2ccc3c(c2)CC[C@@H](c2ccccc2)O3)s1", "note": "(stereo partly shown) [compound 291]", "IC50": 400}, {"smiles": "NC1CCN(C(=O)c2cnc(Oc3ccc4c(c3)CC[C@@H](c3ccccc3)O4)s2)C1", "note": "(stereo partly shown) [compound 292]", "IC50": 300}, {"smiles": "NC[C@@H]1[C@H]2CC[C@H](C2)[C@H]1NC(=O)c1cnc(Oc2ccc3c(c2)CC[C@@H](c2ccccc2)O3)s1", "note": "[compound 293]", "IC50": 1000}, {"smiles": "COC(=O)CNC(=O)c1cnc(Oc2ccc3c(c2)CCC(c2ccccc2)O3)s1", "note": "(stereo not shown) [compound 294]", "IC50": 200}, {"smiles": "O=C(NCCO)c1cnc(Oc2ccc3c(c2)CCC(c2ccccc2)O3)s1", "note": "(stereo not shown) [compound 295]", "IC50": 400}, {"smiles": "Cc1noc(C)c1CCC(=O)NCc1cnc(Oc2ccc3c(c2)CC[C@@H](c2ccccc2)O3)s1", "note": "[compound 296]", "IC50": 400}, {"smiles": "Cc1nn(C)c(C)c1CCC(=O)NCc1cnc(Oc2ccc3c(c2)CC[C@@H](c2ccccc2)O3)s1", "note": "[compound 297]", "IC50": 1100}, {"smiles": "O=C(c1cnc(Oc2ccc3c(c2)CCC(c2ccccc2)O3)s1)N1CC[C@@H](O)C1", "note": "(stereo partly shown) [compound 298]", "IC50": 600}, {"smiles": "Cc1ccccc1C1CCc2cc(Oc3ncc(C(=O)N4CC[C@@H](O)C4)s3)ccc2O1", "note": "(stereo partly shown) [compound 300]", "IC50": 200}, {"smiles": "CS(=O)(=O)c1ccc(C2CCc3cc(Oc4ncc(C(=O)NCc5ccno5)s4)ccc3O2)cc1", "note": "(stereo not shown) [compound 301]", "IC50": 6900}, {"smiles": "NCC(=O)NCc1cnc(Oc2ccc3c(c2)CC[C@@H](c2ccccc2)O3)s1", "note": "[compound 302]", "IC50": 400}, {"smiles": "C[C@H](N)C(=O)NCc1cnc(Oc2ccc3c(c2)CC[C@@H](c2ccccc2)O3)s1", "note": "[compound 303]", "IC50": 300}, {"smiles": "N[C@@H](Cc1ccccc1)C(=O)NCc1cnc(Oc2ccc3c(c2)CC[C@@H](c2ccccc2)O3)s1", "note": "[compound 304]", "IC50": 1900}, {"smiles": "O=C(NCC(O)CO)c1cnc(Oc2ccc3c(c2)CCC(c2ccccc2)O3)s1", "note": "(stereo not shown) [compound 305]", "IC50": 300}, {"smiles": "CC(C)(C)OC(=O)CNC(=O)c1cnc(Oc2ccc3c(c2)CCC(c2ccccc2)O3)s1", "note": "(stereo not shown) [compound 306]", "IC50": 500}]}]}
